Row | Compound | melting point [°C]
1 | Cc1nc(N2CCCC2)c2ccc(Br)cc2n1 | 120 to 122
2 | CCOC(=O)c1c(Nc2c(C)cc(Br)cc2C)n[nH]c1C | 168 to 196
3 | CCOC(=O)C(C#N)=Cc1cc(OC)c(N)c(OC)c1 | 77 to 78
4 | Nc1c(Cl)cccc1NC(=S)Nc1cscc1Cl | 276 to 280
5 | Cc1cc(C)cc(OC(=O)C(Cl)c2ccccc2)c1 (stereo unspecified) | 79
6 | O=c1ssc(N2CCc3ccccc3CC2)c1Cl | 141
7 | COc1ccc(C2(Cn3ccn(Cc4ccccc4)c3=O)CC2)cc1OC | 110
8 | Cc1cc(COc2nn3c(-c4ccccc4)nnc3cc2-c2ccccc2)no1 | 180
9 | CCc1c(OC)nc(OC)nc1C(C#N)c1cc(Cl)cc(Cl)c1 (stereo unspecified) | 121 to 122
10 | N#CC1=C(C2CCCCC2=O)Nc2n[nH]cc2C1c1cccc2nonc12 (stereo unspecified) | > 270
11 | COc1ccc2c(c1)CCC(=CO)C2=O | 66 to 68
12 | COc1ccc(Cl)cc1NC(=O)[C@H]1[C@H](c2ccccc2)C1(C)C (relative stereo) | 155 to 157
13 | COc1ccccc1C(=O)NCC(=O)N1c2ccccc2N(Cc2ccccc2)C(=O)C2CCCC21 (stereo unspecified) | 187 to 188
14 | COC1(C)CC(C)(C)c2ccc(Oc3ccc([N+](=O)[O-])cc3)cc2O1 (stereo unspecified) | 125
15 | Cn1c(C(F)(F)F)cc(=O)n(-c2ccc3snc(C(Cl)Cl)c3c2)c1=O | 148 to 149
16 | O=C(O)c1n[nH]c(=O)c2cc(F)ccc12 | 222 to 224
17 | O=C(CCCl)Nc1ccccc1 | 114 to 116
18 | CN(C)C(=O)c1ccc2ccccc2c1-c1ccccc1 | 86 to 87
19 | O=c1[nH]c(N2CCN(Cc3ccccc3)C(CO)C2)cc2ccccc12 (stereo unspecified) | 176 to 177
20 | Nc1nc2cc(Cl)c(Cl)cc2n1C1OC(CO)C(O)C1O (stereo unspecified) | 145
21 | CCCCCc1ccc(OC(=O)c2ccc(OCC)c(F)c2F)cc1 | 61
22 | CN1CCC2(CC1)c1ccccc1C(C)(O)c1c(O)cccc12 (stereo unspecified) | 151 to 154
23 | O=C1O[C@@H](CNC(=S)C(F)F)CN1c1ccc(N2CCCS(=O)(=O)CC2)c(F)c1 | 128 to 130
24 | NS(=O)(=O)c1cc2c(s1)SCCNC2=O | > 270
25 | CC(C)(C)OC(=O)COc1cc(NC(=O)OC(C)(C)C)c([N+](=O)[O-])cc1-c1ccc(F)cc1 | 92 to 93
26 | COCC1CCN(c2ccc(C#N)c3ccccc23)CC1 | 96 to 97

Row | Compound | melting point [°C]
27 | Cc1oc2c(C)cc(C3CC(=O)OC(=O)C3)cc2c1C | 170
28 | COc1cc2c(cc1OC)C(C)(C)C(/C=C/C(=O)N1CCC(CCCC3CCN(C(=O)/C=C/C4=Cc5cc(OC)c(OC)cc5C4(C)C)CC3)CC1)=C2 | 192 to 194
29 | O=C(c1ccccc1)C(OCc1ccc(Cl)cc1Cl)n1ccnc1 (stereo unspecified) | 109 to 111
30 | CCCCCCCCCCc1cc2c(s1)-n1c(C)nnc1CN=C2c1ccccc1OC | 90 to 92
31 | Cc1cc(C)c2c(c1)C=C(/C=C/C=C/C=C/C(=O)O)C(C)(C)O2 | 200 to 202
32 | CC(C)(C)c1ccc2c(c1)C(=O)CCC2 | 101 to 102
33 | COc1cc2c(c(Cl)c1Cl)C(=O)C(c1ccccc1)C2 (stereo unspecified) | 187 to 192
34 | Cc1nc2cc(-c3ccc(C=C4SC(=O)NC4=O)cc3)cc(C34CC5CC(CC(C5)C3)C4)c2o1 | 354 to 360
35 | c1ccc2c(c1)C[C@H]1Nc3ccccc3[C@@H]21 (relative stereo) | 85 to 86
36 | CCCCn1ccc(-c2ccc(Oc3cc(C)nc(C)c3)cc2F)c(C#N)c1=O | 170
37 | CCOC(=O)NC(=O)C1c2ccccc2Oc2c1cccc2C(F)(F)F (stereo unspecified) | 196 to 198
38 | CN(C)Nc1c(-c2c(F)cc(F)cc2F)c(Cl)nc2ncnn12 | 165 to 168
39 | Cc1ccc(-c2c(Cl)ncnc2NS(=O)(=O)c2ccc(C(C)(C)COC3CCCCO3)cc2)cc1 (stereo unspecified) | 141 to 144
40 | Cc1oc(C=Cc2cccc(C(F)(F)F)c2)nc1CCl | 99 to 100
41 | Cc1cc2nc(OC(C)C)nc(-c3cccc(C(F)(F)F)c3)c2s1 | 106
42 | N#CCCCc1ccccc1CC1C(=O)CCCC1=O | 143
43 | Oc1ccccc1OCC1CCN(CC(O)COc2cccc3[nH]ccc23)CC1 (stereo unspecified) | 119 to 121
44 | COc1ccccc1N1CCN(CCCNC(=O)c2cccc3c(=O)cc(-c4ccccc4)sc23)CC1 | 144 to 146
45 | Cc1ccc(S(=O)(=O)OCCC2CCN(C(=O)c3ccccc3)CC2)cc1 | 81 to 83
46 | CCCCc1nc2cccc(O)c2n1Cc1ccc(-c2ccccc2-c2nnn[nH]2)cc1 | 186 to 188
47 | COc1cc(Br)c(Br)cc1N1CCN(CCCNc2c(C)c(=O)n(C)c(=O)n2C)CC1 | 153 to 155
48 | NS(=O)(=O)c1ccc(-c2nc(C(F)(F)F)oc2-c2ccc(Cl)cc2)cc1 | 167 to 168
49 | CCOC(=O)C1=Cc2cc(Br)ccc2OCC1 | 86 to 87
50 | CC(C)(CC(=O)C(=O)Nc1ccc2c(c1)COC2=O)c1ccccc1 | 132 to 134
51 | COc1ccc([N+](=O)[O-])c2c1CC(C)(C)O2 | 135 to 136
52 | O=C(O)CCCNc1cc(Oc2ccc(C(F)(F)F)cc2Cl)ccc1[N+](=O)[O-] | 126 to 127

Row | Compound | melting point [°C]
53 | CC(=O)Nc1nc(N)nc(-c2ccc(Oc3ccccc3)cc2)n1 | > 260
54 | CC(C)(C)[Si](C)(C)Oc1ccccc1-c1cc(-c2ccc([N+](=O)[O-])cc2)c(C#N)c(NC(=O)c2cccs2)n1 | 168 to 169
55 | Cc1[nH]c(=O)ccc1-c1ccc(O)c(N)c1 | 279 to 283
56 | Oc1cccc(Nc2nnc(Cc3ccncc3)c3ccccc23)c1 | 217 to 219
57 | CC1(C)CC(=O)c2cc(Br)ccc21 | 117 to 118
58 | Cc1ccc2c(c1)N(CC(=O)c1ccccc1C)C(=O)C(NC(=O)Nc1ccc(C)c(C(=O)O)c1)CN2C(=O)c1cccs1 (stereo unspecified) | 192 to 195
59 | O=C1c2ccccc2C(=O)N1Cc1ccc(OC(F)(F)F)cc1 | 82.1 to 83.6
60 | COc1cc(COc2ccccc2CC(=O)O)ccc1OCc1nc(-c2ccccc2)oc1C | 165 to 166
61 | CS(=O)(=O)c1ccc(-c2cc(C=O)cn2-c2ccc(F)cc2)cc1 | 98 to 100
62 | CCCc1nn(-c2ccc(C(F)(F)F)cn2)cc1CCCCOc1cc(CCC(=O)O)n(C)n1 | 122 to 123
63 | COc1ccc(Oc2ccc(C(F)(F)F)cc2Cl)cc1[N+](=O)[O-] | 90 to 92
64 | CC(Oc1ccc2nc(NC(=O)NCCN3CCOCC3)sc2c1)c1c(F)ccc(Cl)c1Cl (stereo unspecified) | 200
65 | O=c1c2ccccc2cc(Cl)n1-c1ccc(Cl)cc1 | 125 to 127
66 | O=C(O)c1cc2c(s1)-c1ccccc1OC2C1=CCCC=C1 (stereo unspecified) | 258 to 260
67 | Cc1c2c(nc3ccccc13)CCN(C(=O)c1ccc(Cl)cc1)CC2 | 163
68 | Cn1nc(-c2cnc3[nH]cc(C(=O)NC4CCOC4)c3n2)c2ccc(Cl)cc21 (stereo unspecified) | 345 to 347
69 | Cc1cc(Cl)cc(C(=O)NNCC(=O)NCc2ccccc2)c1NC(=O)c1cc(Br)nn1-c1ncccc1Cl | 120 to 121
70 | CCOC(=O)c1c(S(=O)(=O)Nc2c(F)cccc2F)nn2c(C)cc(C)nc12 | 88 to 110
71 | CCC1(CC)c2cc(-c3ccc(N(c4ccccc4)c4ccccc4)cc3)ccc2-c2ccc(-c3nc4ccccc4s3)cc21 | 206 to 208
72 | O=C(O)C(CBr)(c1ccccc1)c1ccccc1 | 201 to 202
73 | C=CCCCCCCCCC(=O)N1CCN(c2cc(N3CCCC3)nc(N3CCCC3)n2)CC1 | 93 to 96
74 | COc1ccccc1CNc1ccc2cc(Nc3ncccc3C)ccc2n1 | 163
75 | Cn1nc2c(-c3ccc(Cl)cc3Cl)cccc2c1C=CC#N | 258 to 259
76 | O=C(C=Cc1cccnc1)NCCCCN1CCCN(C(c2ccccc2)c2ccccc2)CC1 | 149 to 151
77 | O=C(O)/C=C/c1ccc(OCCN2CCCC2)cc1 | 183
78 | COC(=O)c1cnc(Cl)cc1NN | 163

Row | Compound | melting point [°C]
79 | COc1cc(Br)cc2c1OCCC2=O | 137
80 | CCOC(=O)CNc1ncccc1NC(=O)c1ccc(C)s1 | 112 to 115
81 | CSc1[nH]c2cccc3c2c1CC1C3CC(C)CN1C (stereo unspecified) | 201 to 202
82 | O=C1c2ccccc2CN1C1CCN(CCC2c3ccccc3-c3ccccc32)CC1 | 65 to 68
83 | COCc1ccc2sc(C(=O)OC)c(C)c2c1 | 88 to 89
84 | COC(=O)Nc1nc2ccc(Sc3ccccc3)cn2c1C(=O)C(F)(F)F | 171 to 173
85 | CN(C)C/C=C\c1ncccc1OCCO | 71
86 | CCCCCCCCCCCCCCCc1ccc(C(=O)O)c(O)c1 | 96 to 97
87 | CC(C)Sc1c(C(N)=O)n(C)c2ccc(O)cc12 | 60 to 62
88 | O=C(Nc1ccc(F)cc1F)c1ccccn1 | 90.5 to 95
89 | O=C(NC1CCOC1=O)c1cc2c(n(CC3CCCCC3)c1=O)CCCCCC2 (stereo unspecified) | 136 to 140
90 | O=C(O)COc1ccc2cc(-c3oc4ccccc4c3C(=O)CC3CCCC3)ccc2c1 | 177 to 178
91 | COC(=O)Nc1nc2cc(S(=O)CC3CC3)ccc2[nH]1 (stereo unspecified) | 223 to 224
92 | O=C(O)CCCCCNC(=O)OCC1c2ccccc2-c2ccccc21 | 116
93 | CCC(O)c1cc(C2(c3cccc(-c4cccnc4F)c3)N=C(N)N(C)C2=O)cn1CC (stereo unspecified) | 115 to 121
94 | Cc1ccc(C2C(=O)CCC2=O)c(C)c1 | 198 to 200
95 | Nc1c(Cl)nc2ccccc2c1NCc1ccccn1 | 98 to 102
96 | Cc1cn(N=Cc2cccnc2)c(=O)n1CC#N | 195 to 198
97 | FC(F)(F)c1cnc(-c2ccc(Cl)c(CBr)c2)c(Cl)c1 | 71 to 72
98 | CCCCCCCCc1ccc(-c2ncc(OCC(C)OC(=O)CCCCCC)cn2)cc1 (stereo unspecified) | 33 to 34.3
99 | CC[C@@]1(CC(=O)N[C@@H](C)c2ccccc2)CCCN2CCc3c([nH]c4ccccc34)[C@@H]21 | 188 to 192
100 | Cc1cc(N2C=CC(O)CC2)nn2cnnc12 (stereo unspecified) | 171 to 173
101 | CNC(=C[N+](=O)[O-])NCCSCc1ncccc1Cl | 166

— a melting point compilation (Tetko et al.; mined from patent text by program, amines drawn as free bases though some values may be those of a salt)
